Experimental data taken from patent publication US20230056604A1, “EPIDERMAL GROWTH FACTOR RECEPTOR TYROSINE KINASE INHIBITORS FOR THE TREATMENT OF CANCER” (AstraZeneca AB, priority 2020, published 2023).
“Also recorded” adds a separate entry of the source.

Legend:
[1] = test system: subcutaneous PC9 model in nude mice; assay: PC9 xenograft tumour growth inhibition and re-growth in vivo
Experimental: Tumour growth inhibition following dosing of vehicle, osimertinib 25 mg/kg PO QD, AZD5582 2 mg/kg IV QW, or the combination of the two agents for 3 weeks followed by a period of re-growth in the subcutaneous, PC9 model in nude mice. Data are represented as mean ±SEM (n=8 per group) or as tumour volume of individual mouse.
Tumour growth inhibition following dosing of vehicle for 3 weeks, osimertinib 25 mg/kg PO QD for 6 weeks, or osimertinib 25 mg/kg PO QD for 3 weeks followed by the combination of osimertinib 25 mg/kg PO QD and AZD5582 2 mg/kg IV QW for 3 weeks followed by a period of re-growth in the subcutaneous, PC9 model in nude mice. Data are represented as mean±SEM (n=8 per group) or as tumour volume of individual mouse.

[2] = test system: EGFRm parental cells (HCC2279, HCC2935, HCC4006, II-18, NCI-H1975 and PC9); assay: Incucyte Caspase-3/7 apoptosis assay in EGFRm parental cell lines; assay type: cell-based, human; conditions: panel of 6 EGFRm cell lines; osimertinib 160 nM + Smac mimetic 1 μM vs osimertinib monotherapy; 48 h, normalised to DMSO
Experimental: Data was calculated as the number of apoptotic events divided by cell confluence, and normalised to the values for DMSO control. Data are presented on a log scale to better visualize all cell lines.
FIG. 3: Multiple Smac mimetic molecules enhance osimertinib-induced apoptosis in NCI-H1975 and PC9 cells Caspase-3/7 activation, a direct readout of apoptotic initiation was measured after 48 h of treatment with either osimertinib monotherapy or its combination with 4 distinct Smac mimetic small molecules in NCI-H1975 and PC9 cells. Data was calculated as the number of apoptotic events divided by cell confluence, and normalised to the values for DMSO control.
PC9 is a cell line derived from human lung adenocarcinoma harbouring the activating mutation in EGFR del E746_A750 (Ex19-del). HCC2935 is a cell line derived from a pleural effusion of human lung adenocarcinoma harbouring the activating mutation in EGFR del E746_T751 (Ex19-del). […]
EGFRm parental cells (HCC2279, HCC2935, HCC4006, II-18, NCI-H1975 and PC9) were seeded in 96 well plated at a concentration of 5000 cells/well. […] Cells were then placed on the Incucyte S3 imaging system and both cell confluence and green fluorescence were measured, every 4 hours. After 96 h the experiment was terminated, and apoptosis values calculated by dividing the number of individual green points (apoptosis events) by cell confluence. […]

[3] = test system: PC9, HCC2935 and NCI-H1975 cells; assay: Incucyte cell confluence: formation and regrowth of osimertinib drug tolerant persister cells; assay type: cell-based, human
Experimental: HCC2935, NCI-H1975 and PC9 cells were treated with osimertinib, AZD5582 or the combination of the two agents for 10 days, after which time drug was removed to allow regrowth of the cells. Cell confluence was measured on the Incucyte imaging platform as a surrogate for cell number.
Representative images were taken from the cell growth experiments in PC9 and HCC2935 cell lines described in FIG. 4. Cells treated for 10 days with either osimertinib alone or osimertinib in combination with AZD5582, at which time drug was removed from 7 days.
FIG. 6: osimertinib DTPs are sensitive to Smac mimetic treatment. Parental PC9 cells were treated with the combination of osimertinib and 4 distinct Smac mimetics to determine the rate of DTP survival and re-growth. Cell confluence was measured on the Incucyte imaging platform as a surrogate for DTP number.
PC9 is a cell line derived from human lung adenocarcinoma harbouring the activating mutation in EGFR del E746_A750 (Ex19-del). HCC2935 is a cell line derived from a pleural effusion of human lung adenocarcinoma harbouring the activating mutation in EGFR del E746_T751 (Ex19-del). HCC2279 is a cell line derived from a human lung adenocarcinoma bearing the activating mutation in EGFR del Em746_A750. HCC4006 is a cell line derived from a human lung adenocarcinoma bearing the activating mutation in EGFR del E746_A750. […]

[4] = test system: c-IAP1 and c-IAP2 mRNA (BIRC2 and BIRC3) in PC9, HCC2935 and NCI-H1975 cell lines; assay: RNAseq gene expression of c-IAP1 and c-IAP2 mRNA in EGFRm cell lines after osimertinib treatment; assay type: cell-based, human; conditions: osimertinib acute (24 h) or chronic (14 d, DTP) vs untreated (DMSO), particularly chronic schedule
Experimental: FIG. 1: A subset of EGFRm NSCLC cell lines upregulate the expression of c-IAP1 and c-IAP2 mRNA after prolonged treatment with osimertinib. RNA sequencing (RNAseq) was performed in cells chronically treated with osimertinib (14 days) and compared to untreated (DMSO) or acutely treated (24 h) cells. Levels of BIRC2 mRNA (c-IAP1) and BIC3 mRNA (c-IAP2) were plotted on a log 2 scale.
PC9 is a cell line derived from human lung adenocarcinoma harbouring the activating mutation in EGFR del E746_A750 (Ex19-del). HCC2935 is a cell line derived from a pleural effusion of human lung adenocarcinoma harbouring the activating mutation in EGFR del E746_T751 (Ex19-del). HCC2279 is a cell line derived from a human lung adenocarcinoma bearing the activating mutation in EGFR del Em746_A750. HCC4006 is a cell line derived from a human lung adenocarcinoma bearing the activating mutation in EGFR del E746_A750. II-18 is a cell line derived from a human lung adenocarcinoma bearing the activating mutation in EGFR L858R. NCI-H1975 is a cell line derived from a human lung adenocarcinoma bearing the activating mutation in EGFR L858R and the gatekeeper mutation in EGFR T790M.
The purpose of this experiment was to use RNAseq to analyse gene expression in EGFRm cell lines treated both chronically (14 d) or acutely (24 h) with osimertinib.

Structure (SMILES) | tumour growth inhibition / regrowth after treatment release ([1]; minimal residual disease: osimertinib 21 days, then osimertinib + AZD5582 2 mg/kg IV QW 21 days, vs osimertinib alone 42 days, 2 mg/kg) | tumour growth inhibition / regrowth after treatment release ([1]; osimertinib 25 mg/kg PO QD + AZD5582 2 mg/kg IV QW for 21 days vs osimertinib alone for 21 days) | number of apoptotic events (Caspase-3/7 activation) normalised to cell confluence [2] | percentage confluency (a measure of cell growth) ([3]; PC9, HCC2935 or NCI-H1975, 10 days combination with osimertinib (500 nM) then drug removal, vs 10 days osimertinib alone) | regrowth of cells after drug removal (representative images) ([3]; PC9 and HCC2935, 10 days osimertinib + AZD5582, then drug removed for 7 days) | mRNAs coding for c-IAP1 and c-IAP2 (BIRC2 and BIRC3) expression [4]
CN[C@@H](C)C(=O)N[C@H](C(=O)N1CCC[C@H]1C(=O)N[C@H]1c2ccccc2C[C@H]1OCC#CC#CCO[C@@H]1Cc2ccccc2[C@@H]1NC(=O)[C@@H]1CCCN1C(=O)[C@@H](NC(=O)[C@H](C)NC)C1CCCCC1)C1CCCCC1 [AZD5582] | delay of regrowth; also recorded: enhances the antiproliferative effects of osimertinib | delay of regrowth; also recorded: enhances the antiproliferative effects of osimertinib | enhances osimertinib-induced apoptosis | lower percentage confluency; also recorded: enhances the antiproliferative effects of osimertinib | fail to regrow after drug removal | –
C=CC(=O)Nc1cc(Nc2nccc(-c3cn(C)c4ccccc34)n2)c(OC)cc1N(C)CCN(C)C [osimertinib, N-(2-{2-dimethylaminoethyl-methylamino}-4-methoxy-5-{[4-(1-methylindol-3-yl)pyrimidin-2-yl]amino}phenyl) prop-2-enamide] | – | – | – | – | – | significantly upregulated
